Assay results: patent US6864246B2, “Anilide and cyclodextrin complexes, their preparation and their use as medicine in particular for treating dyslipidemiae” (Pierre Fabre Medicament, priority 2001, dated 2005)
In brackets after ≈: the same amount, converted by molar mass. Read-outs that look alike come from different tables or passages of the source.

Assays:
[1] = 25° C.; cited from earlier work
[2] = 1 h
physchem = settings: 25 °C, aqueous with cosolvent or surfactant or cyclodextrin, thermodynamic from solid
[3] = Solubility at saturation of F12511 in solvents at 25° C.; format: physicochemical; settings: thermodynamic from solid
Protocol: By way of example, the table below gives some characteristic solubilities at saturation, at 25° C.: […]

[4] = Amount of F12511 solubilized in a solution of sodium lauryl sulfate at 5%

Amount of F12511 solubilized in a solution of sodium lauryl sulfate at 5% [2] [µg/mL] | solubility at 2 h (physchem; Amount of F12511 solubilized) [µg/mL] | solubility at 5 min (physchem; [4]) [µg/mL] | solubility at 30 min (physchem; [4]) [µg/mL] | solubility at 1 h (physchem; [4]) [µg/mL] | solubility at 2 h (physchem; [4]) [µg/mL] | solubility ([3]; Macrogol 400, 25 °C, organic solvent or mixture, Macrogol 400, 25° C., read-out: Solubility at saturation) [µg/mL] | solubility ([3]; corn oil, 25 °C, oil or lipid, Corn oil, 25° C., read-out: Solubility at saturation) [µg/mL] | solubility ([3]; ethanol, 25 °C, organic solvent or mixture, Ethanol, 25° C., read-out: Solubility at saturation) [µg/mL] | solubility ([3]; ethyl alcohol at 95%, 25 °C, organic solvent or mixture, ethyl alcohol at 95%, read-out: Solubility at saturation) [µg/mL] | solubility ([3]; water, 25 °C, water, Water, 25° C., limit of analytical detection, read-out: Solubility at saturation) [µg/mL] | solubility ([3]; water, 25 °C, water, water, limit of analytical detection, read-out: Solubility at saturation in water) [µg/mL] | Structure (SMILES) | Water-solubility [1]
– | – | – | – | – | – | – | – | – | – | – | – | OC[C@H]1O[C@@H]2O[C@H]3[C@H](O)[C@@H](O)[C@@H](O[C@H]4[C@H](O)[C@@H](O)[C@@H](O[C@H]5[C@H](O)[C@@H](O)[C@@H](O[C@H]6[C@H](O)[C@@H](O)[C@@H](O[C@H]7[C@H](O)[C@@H](O)[C@@H](O[C@H]1[C@H](O)[C@H]2O)O[C@@H]7CO)O[C@@H]6CO)O[C@@H]5CO)O[C@@H]4CO)O[C@@H]3CO [α-cyclodextrin] | 14.2 g % ml,
5 | ~10 (≈ 21.3 µM) | 1 (≈ 2.13 µM) | 3 (≈ 6.39 µM) | 5 (≈ 10.6 µM) | 11 (≈ 23.4 µM) | 1000 (≈ 2130 µM) | 300 (≈ 639 µM) | 7000 (≈ 14900 µM) | ≤ 2000 | < 0.05 | < 0.05 | CCCCCCCCCCCCS[C@H](C(=O)Nc1cc(C)c(O)c(C)c1C)c1ccccc1 [Example F12511, (S)-2′,3′,5′-trimethyl-4′-hydroxy-α-dodecylthiophenylacetanilide] | –
